The supplement of paper PMC10627819

Columns and labels:
S. aureus Newman = assay: Bliss interaction score (quartile over a dose matrix) (fitness difference); higher = more antagonism (negative = synergy)
In short: (§1)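 The Bliss score takes observed fitness and subtracts the expected fitness, calculated as a product of single-drug fitness values. Those single-drug values were inferred from the combination data. Fitness is OD595 at entry into stationary phase divided by the plate's robust no-drug mean, capped at 1, and the score is summarised by quartiles across technical, biological and donor/recipient replicates.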

S. pneumoniae D39V [1] = assay: as above
In short: as §1

B. subtilis 168 = assay: as above
In short: as §1

S. aureus DSM 20231 = assay: as above
In short: as §1

S. pneumoniae D39V [2] = assay: fitness (endpoint OD595 vs no drug) (fraction); higher = more growth
In short: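 Growth medium was TSB, LB Lennox or CY, and plates were kept at 37 °C. Inoculation was at OD595 0.01 in 384-well plates, at 30 µl per well or 55 µl for S. pneumoniae. OD595 was monitored every 30 min for 14 h and background-subtracted using the first reading. Fitness is the optical density on entering stationary phase divided by the robust mean of no-drug controls, with values capped at 1.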
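For Bliss interaction score (quartile over a dose matrix) in this document: first quartile when negative (synergy) and third quartile when positive (antagonism).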
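For fitness (endpoint OD595 vs no drug) in this document: OD595 on entry to stationary phase over no-drug wells; at most 1.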

CCC[C@@H]1C[C@@H](C(=O)N[C@@H]([C@H]2O[C@H](SC)[C@H](O)[C@@H](O)[C@H]2O)[C@@H](C)O)N(C)C1 [Lincomycin] + C/C(=C\C(=O)OCCCCCCCCC(=O)O)C[C@@H]1OC[C@H](C[C@@H]2O[C@H]2[C@@H](C)[C@H](C)O)[C@@H](O)[C@H]1O [Pseudomonic acid]
Settings	Bliss interaction score
B. subtilis 168	-0.0308
S. aureus DSM 20231	0.0155
S. aureus Newman	0.031
S. pneumoniae D39V [1]	-0.269

fitness, S. pneumoniae D39V [2]
Settings	first compound 0.2 µg/mL	first compound 0.215 µg/mL	first compound 0.4 µg/mL	first compound 0.43 µg/mL	first compound 0.8 µg/mL	first compound 0.86 µg/mL
partner 0.03 µg/mL	0.649	0.828	–	0.633	0.121	0.177
partner 0.06 µg/mL	–	–	0.206	–	0.0533	0.142
partner 0.12 µg/mL	0.179	–	0.156	–	0.0889	0.12

CCC[C@@H]1C[C@@H](C(=O)N[C@@H]([C@H]2O[C@H](SC)[C@H](O)[C@@H](O)[C@H]2O)[C@@H](C)O)N(C)C1 [Lincomycin] + CO[C@H]1/C=C/O[C@@]2(C)Oc3c(C)c(O)c4c(O)c(c(/C=N/N5CCN(C)CC5)c(O)c4c3C2=O)NC(=O)/C(C)=C\C=C\[C@H](C)[C@H](O)[C@@H](C)[C@@H](O)[C@@H](C)[C@H](OC(C)=O)[C@@H]1C [Rifampicin]
Settings	Bliss interaction score
B. subtilis 168	-0.0988
S. aureus DSM 20231	-0.0747
S. aureus Newman	0.0333
S. pneumoniae D39V [1]	-0.136

fitness, S. pneumoniae D39V [2], one replicate
Settings	first compound 0.2 µg/mL	first compound 0.4 µg/mL	first compound 0.8 µg/mL
partner 0.025 µg/mL	0.137	0.0822	0.0813
partner 0.2 µg/mL	0	0	0

fitness, S. pneumoniae D39V [2]
Settings	first compound 0.2 µg/mL	first compound 0.215 µg/mL	first compound 0.4 µg/mL	first compound 0.43 µg/mL	first compound 0.8 µg/mL	first compound 0.86 µg/mL
partner 0.05 µg/mL	–	–	0.0846	–	0.0947	0.185
partner 0.1 µg/mL	0.076	–	0.0641	–	0.0864	0.147
partner 0.2 µg/mL	–	0.26	–	0.221	–	0.131

CCC[C@@H]1C[C@@H](C(=O)N[C@@H]([C@H]2O[C@H](SC)[C@H](O)[C@@H](O)[C@H]2O)[C@@H](C)O)N(C)C1 [Lincomycin] + Clc1ccc(COC(Cn2ccnc2)c2ccc(Cl)cc2Cl)c(Cl)c1 [Miconazole]
Settings	Bliss interaction score
B. subtilis 168	0.0378
S. aureus DSM 20231	0.0484
S. aureus Newman	0.0538
S. pneumoniae D39V [1]	0.117

S. pneumoniae D39V [2]
Settings	fitness
first compound 0.2 µg/mL, partner 1.073 µg/mL	0.824
first compound 0.2 µg/mL, partner 2.145 µg/mL	0.874
first compound 0.2 µg/mL, partner 4.29 µg/mL	0.807
first compound 0.215 µg/mL, partner 1.25 µg/mL	0.808
first compound 0.215 µg/mL, partner 2.5 µg/mL	0.782
first compound 0.215 µg/mL, partner 5 µg/mL	0.81
first compound 0.4 µg/mL, partner 1.073 µg/mL	0.716
first compound 0.4 µg/mL, partner 2.145 µg/mL	0.683
first compound 0.4 µg/mL, partner 4.29 µg/mL	0.544
first compound 0.43 µg/mL, partner 1.25 µg/mL	0.71
first compound 0.43 µg/mL, partner 2.5 µg/mL	0.682
first compound 0.43 µg/mL, partner 5 µg/mL	0.689
first compound 0.8 µg/mL, partner 4.29 µg/mL	0.275
first compound 0.86 µg/mL, partner 1.25 µg/mL	0.264
first compound 0.86 µg/mL, partner 2.5 µg/mL	0.308
first compound 0.86 µg/mL, partner 5 µg/mL	0.377

CCC[C@@H]1C[C@@H](C(=O)N[C@@H]([C@H]2O[C@H](SC)[C@H](O)[C@@H](O)[C@H]2O)[C@@H](C)O)N(C)C1 [Lincomycin] + O=C1CN(/N=C/c2ccc([N+](=O)[O-])o2)C(=O)N1 [Nitrofurantoin]
Settings	Bliss interaction score
B. subtilis 168	0.163
S. aureus DSM 20231	-0.0943
S. aureus Newman	-0.101
S. pneumoniae D39V [1]	-0.118

fitness, S. pneumoniae D39V [2]
Settings	first compound 0.2 µg/mL	first compound 0.215 µg/mL	first compound 0.4 µg/mL	first compound 0.43 µg/mL	first compound 0.8 µg/mL	first compound 0.86 µg/mL
partner 1.285 µg/mL	0.718	–	0.677	–	0.281	–
partner 2 µg/mL	–	0.753	–	0.681	–	0.392
partner 2.57 µg/mL	0.775	–	0.716	–	0.266	–
partner 4 µg/mL	–	0.763	–	0.7	–	0.358
partner 8 µg/mL	–	0.711	–	0.381	–	0.141

S. pneumoniae D39V [2], partner 5.14 µg/mL, one replicate
Settings	fitness
first compound 0.2 µg/mL	0.768
first compound 0.4 µg/mL	0.633
first compound 0.8 µg/mL	0.189

COc1c(N2C[C@@H]3CCCN[C@@H]3C2)c(F)cc2c(=O)c(C(=O)O)cn(C3CC3)c12 [Moxifloxacin] + CO[C@H]1/C=C/O[C@@]2(C)Oc3c(C)c(O)c4c(O)c(c(/C=N/N5CCN(C)CC5)c(O)c4c3C2=O)NC(=O)/C(C)=C\C=C\[C@H](C)[C@H](O)[C@@H](C)[C@@H](O)[C@@H](C)[C@H](OC(C)=O)[C@@H]1C [Rifampicin]
Settings	Bliss interaction score
B. subtilis 168	-0.0221
S. aureus DSM 20231	-0.0701
S. aureus Newman	-0.0223
S. pneumoniae D39V [1]	-0.0845

fitness, S. pneumoniae D39V [2], one replicate
Settings	first compound 0.0037 µg/mL	first compound 0.0075 µg/mL	first compound 0.015 µg/mL
partner 0.025 µg/mL	0.868	0.822	0.779
partner 0.2 µg/mL	0	0	0

fitness, S. pneumoniae D39V [2]
Settings	first compound 0.0037 µg/mL	first compound 0.005 µg/mL	first compound 0.0075 µg/mL	first compound 0.01 µg/mL	first compound 0.015 µg/mL	first compound 0.02 µg/mL
partner 0.05 µg/mL	0.776	0.919	0.725	0.908	0.713	0.908
partner 0.1 µg/mL	0.317	–	0.295	–	0.354	–
partner 0.2 µg/mL	–	0.168	–	0.196	–	0.198

COc1c(N2C[C@@H]3CCCN[C@@H]3C2)c(F)cc2c(=O)c(C(=O)O)cn(C3CC3)c12 [Moxifloxacin] + O=C1CN(/N=C/c2ccc([N+](=O)[O-])o2)C(=O)N1 [Nitrofurantoin]
Settings	Bliss interaction score
B. subtilis 168	0.0132
S. aureus DSM 20231	0.0448
S. aureus Newman	-0.0496
S. pneumoniae D39V [1]	0.0837

fitness, S. pneumoniae D39V [2]
Settings	first compound 0.0037 µg/mL	first compound 0.005 µg/mL	first compound 0.0075 µg/mL	first compound 0.01 µg/mL	first compound 0.015 µg/mL	first compound 0.02 µg/mL
partner 1.285 µg/mL	0.969	–	0.914	–	0.884	–
partner 2 µg/mL	–	0.972	–	0.961	–	0.893
partner 2.57 µg/mL	0.906	–	0.903	–	0.912	–
partner 4 µg/mL	–	0.949	–	0.949	–	0.879
partner 8 µg/mL	–	0.836	–	0.872	–	0.81

S. pneumoniae D39V [2], partner 5.14 µg/mL, one replicate
Settings	fitness
first compound 0.0037 µg/mL	0.797
first compound 0.0075 µg/mL	0.748
first compound 0.015 µg/mL	0.78

O=C1CN(/N=C/c2ccc([N+](=O)[O-])o2)C(=O)N1 [Nitrofurantoin] + CC1=C\[C@@H](O)CC(=O)Cc2nc(co2)C(=O)N2CCC=C2C(=O)O[C@H](C(C)C)[C@H](C)/C=C/C(=O)NC\C=C\1 [Virginiamycin M1]
Settings	Bliss interaction score
B. subtilis 168	0.129
S. aureus DSM 20231	0.0559
S. aureus Newman	0.0574
S. pneumoniae D39V [1]	0.084

fitness, S. pneumoniae D39V [2]
Settings	first compound 1.285 µg/mL	first compound 2 µg/mL	first compound 2.57 µg/mL	first compound 4 µg/mL	first compound 8 µg/mL
partner 0.5 µg/mL	0.99	–	0.955	–	–
partner 1 µg/mL	0.98	–	0.962	–	–
partner 2 µg/mL	0.972	0.867	0.949	0.879	0.872

fitness, S. pneumoniae D39V [2], one replicate
Settings	partner 0.15 µg/mL	partner 0.3 µg/mL	partner 0.5 µg/mL	partner 1 µg/mL	partner 2 µg/mL
first compound 2 µg/mL	0.911	0.875	0.99	0.988	–
first compound 4 µg/mL	0.914	0.886	0.967	0.957	–
first compound 5.14 µg/mL	–	–	0.917	0.972	≥ 1
first compound 8 µg/mL	0.888	0.897	0.918	0.855	–

O=C1CN(/N=C/c2ccc([N+](=O)[O-])o2)C(=O)N1 [Nitrofurantoin] + CCN(CC)CCOC(=O)c1ccc(N)cc1 [Procaine]
Settings	Bliss interaction score
B. subtilis 168	0.106
S. aureus DSM 20231	0.0706
S. aureus Newman	0.0593
S. pneumoniae D39V [1]	0.0619

fitness, S. pneumoniae D39V [2]
Settings	partner 85.5 µg/mL	partner 171 µg/mL	partner 342 µg/mL
first compound 1.285 µg/mL	0.994	0.987	0.994
first compound 2.57 µg/mL	0.972	0.964	0.934

fitness, S. pneumoniae D39V [2], one replicate
Settings	first compound 2 µg/mL	first compound 4 µg/mL	first compound 5.14 µg/mL	first compound 8 µg/mL
partner 85.5 µg/mL	0.964	0.951	0.921	0.858
partner 171 µg/mL	≥ 1	0.979	0.943	0.908
partner 342 µg/mL	0.914	0.879	0.918	0.837

O=C1CN(/N=C/c2ccc([N+](=O)[O-])o2)C(=O)N1 [Nitrofurantoin] + CN1C2=CC=CC=C2N=C3C1=CC=CC3=O [Pyocyanin]
Settings	Bliss interaction score
B. subtilis 168	0.0805
S. aureus DSM 20231	-0.0533
S. aureus Newman	-0.0575
S. pneumoniae D39V [1]	-0.199

fitness, S. pneumoniae D39V [2]
Settings	partner 0.325 µg/mL	partner 0.65 µg/mL	partner 1.3 µg/mL
first compound 1.285 µg/mL	0.979	0.919	0.634
first compound 2.57 µg/mL	0.94	0.796	0.444

fitness, S. pneumoniae D39V [2], one replicate
Settings	first compound 2 µg/mL	first compound 4 µg/mL	first compound 5.14 µg/mL	first compound 8 µg/mL
partner 0.325 µg/mL	≥ 1	≥ 1	0.798	0.738
partner 0.65 µg/mL	≥ 1	0.982	0.637	0.814
partner 1.3 µg/mL	–	–	0.332	–

O=C1CN(/N=C/c2ccc([N+](=O)[O-])o2)C(=O)N1 [Nitrofurantoin] + CN(C)c1cc(NC(=O)CNC(C)(C)C)c(O)c2c1C[C@H]1C[C@H]3[C@H](N(C)C)C(O)=C(C(N)=O)C(=O)[C@@]3(O)C(O)=C1C2=O [Tigecycline]
Settings	Bliss interaction score
B. subtilis 168	0.178
S. aureus DSM 20231	0.0547
S. aureus Newman	0.0708
S. pneumoniae D39V [1]	0.0879

fitness, S. pneumoniae D39V [2]
Settings	first compound 1.285 µg/mL	first compound 2 µg/mL	first compound 2.57 µg/mL	first compound 4 µg/mL	first compound 8 µg/mL
partner 0.65 µg/mL	0.939	0.96	0.932	0.971	0.921
partner 1.3 µg/mL	0.957	0.958	0.957	0.941	0.881
partner 2.6 µg/mL	0.949	0.919	0.936	0.937	0.9

S. pneumoniae D39V [2], first compound 5.14 µg/mL, one replicate
Settings	fitness
partner 0.65 µg/mL	0.922
partner 1.3 µg/mL	0.92
partner 2.6 µg/mL	0.894
